pIC50: −log10 of the molar value. ≈ marks a conversion by molar mass, not a printed value.
Tests used:
[1] = Aqueous solubility in FaSSIF; format: physicochemical; settings: for solubility at 16 h: kinetic from dmso stock, pH 6.5, 16 hours, room temperature
Method: Aqueous solubility was measured by equilibration of compounds with fasted state simulated intestinal fluid (FaSSIF) and quantified spectrophotometrically.
Preparation of blank FaSSIF: 0.21 g of sodium hydroxide (NaOH) pellets, 1.97 g of dihydrogen sodium phosphate (NaH2PO4.2H2O) and 3.09 g of sodium chloride (NaCl) were dissolved in 400 mL of deionised water. The pH was adjusted to 6.5 using 1 M hydrochloric acid and further deionised water added to a final volume of 500 mL.
Preparation of FaSSIF: 0.056 g of SIF Powder (containing sodium taurocholate and lecithin) (Pharses A G) was dissolved in 25 mL of blank FaSSIF and stirred until the powder was completely dissolved. The solution was allowed to stand for 2 hours during which it became opalescent; it was used within 24 hours. The final solution composition was characterised as follows: • Sodium taurocholate: 3 mM • Lecithin: 0.75 mM • Osmolarity: 270±10 mOsmol • pH: 6.5
The optical density was measured at the end of the incubation period for test compounds and a reference used to determine solubility. In brief, two samples were prepared for each determination: a reference sample consisting of a stock solution of test compound in DMSO diluted in system solution (a phosphate free, low absorption buffer) and propanol; and a test sample (prepared in triplicate) consisting of 0.5 mL FaSSIF spiked with test compound at 0.2 mM. Each sample was incubated at room temperature for 16 hours with constant shaking at 250 rpm. At the end of the incubation period, 0.3 mL of each sample was filtered through a pION filter plate (PION, Woburn MA), diluted 1:1 with propanol and scanned using UV spectrophotometry at Amax ([…]) using a Spectra Max Plus—Version 2.1000 (Molecular Devices, Sunnyvale, CA), with pSOL Explorer solubility determination software (pION, Woburn, MA).
FaSSIF solubility was calculated using the following formula:
[formula] • wherein: • “OD” is the optical density; • “Cr” is the concentration of the reference (33.4 μM); and • “molecular weight” is for the test compound (e.g., 381.44 for ABD735).

human hepatocytes = test: Human Hepatocyte Stability; format: in vitro ADME; settings: for metabolic stability (in words): human hepatocytes
Method: (§1) Metabolic stability of test compounds was measured by determination of the rate of disappearance of the compound when incubated in the presence of human hepatocytes, a primary source of the most important enzymes (cytochrome P450s) involved in drug metabolism. Study of drug stability in the presence of primary hepatocytes is accepted as a valuable model permitting rapid prediction of in vivo drug stability.
(§2) Human hepatocytes were obtained from a commercial source and viability was assessed using a trypan blue solution prior to use. Test compounds (final concentration 1 μM, 0.1 DMSO, 0.9% acetonitrile) or a marker (diclofenac or diltiazem, final assay concentration 1 μM, 0.1% DMSO, 0.9% acetonitrile) were incubated with pooled hepatocytes for a 60 minute period and samples removed at up to 6 time points and analysed by LC-MS/MS for the presence/amount of test compounds.
(§3) Each compound was incubated for 0, 5, 15, 30, 45, or 60 minutes. The reactions were stopped by the addition of methanol containing an internal standard (1 μM Tolbutamide) at the appropriate time points, mixed and placed at −20° C. for 1 hour to quench and allow protein to precipitate. All samples were centrifuged (2500× g, 20 minutes, 4° C.). The aliquots were analysed using LC-MS/MS. Reactions were performed in duplicate at 37° C.
(§4) Data were processed, and the results plotted as In(concentration) vs. time. The elimination rate constant (slope of the regression line, k) was calculated using the following formula, where C(t) is the concentration at time t and C(0) is the starting concentration:
(§5) The half-life (t1/2) was calculated using the following formula: […]
(§6) The intrinsic clearance (Clint) was calculated using the following formula, where [cell] is the hepatocyte concentration in the assay: […]

[2] = tested on: Thp1 human monocytic cells; test: Thp1 Monocyte ATP Production Assay (ATPlite); format: cell-based; settings: Thp1 cells, 24 hour incubation, mean of 2 independent experiments
Method: In vitro potency of test compounds was determined by incubation with Thp1 human monocytic cells and subsequent determination of Adenosine TriPhosphate (ATP) levels using firefly luciferase.
ATP is present in all metabolically active cells. When cells lose integrity, their ability to synthesise ATP is rapidly lost. […] See, e.g., Kang et al., 2015; Jiang et al., 2013. Levels of ATP can be monitored using a system based on firefly (Photinus pyralis) luciferase (see, e.g., Auld et al., 2009) using commercially available kits. A system known as ATPlite™ was using to measure effects of the test compounds on cellular viability in vitro. This one-step assay system is an adenosine triphosphate (ATP) monitoring system based on the production of light caused by the reaction of ATP from the cells with added luciferase and D-luciferin, as illustrated in the reaction scheme below:
Thp1 cells were plated at 112500 cells per well in 125 μL RPMI-1640 (no glucose) with 1% FBS in 96-well plates. Test compounds were prepared as 100 mM solutions in DMSO. These stock solutions were diluted in DMSO and then diluted 1000× in culture medium (RPMI) before being added directly to the wells so as to give the desired final compound concentration. After a 24 hour incubation at 37° C./5% CO2, ATPLite™ (Perkin Elmer) was added to each well (1:10 v/v, 10 μL). The plate was then incubated at room temperature for 5 minutes and the emitted light was quantified on Viewlux with a measurement time of 0.3 seconds and binning 4×4.
The average results for each test compound were expressed as a percent (%) of the average control value reflecting cell viability. The average values across the concentrations tested were then plotted and the IC50 for was calculated by fitting the data to a 4-parameter IC50 equation using software from Graf it (Erithacus Software). Each experiment was repeated twice and the data are presented as the mean IC50 from both experiments.

[3] = Human Hepatocyte Stability; format: in vitro ADME; settings: pooled human hepatocytes, 1 μM, 60 minute incubation; for half-life at 1 μM: read-out: Human t1/2
Method: as §1, §2, §3, §4, §5, §6

hERG = hERG (Homo sapiens (Human), UniProt Q12809); test: hERG Ion Channel binding assay (3H astemizole displacement); settings: human, membranes of HEK293 cells stably expressing hERG, pH 7.4, probe 3H astemizole (1.5 nM); 30 μM; displacement of 3H astemizole, hERG-HEK293 membranes
Sequence of hERG (Q12809 whole entry): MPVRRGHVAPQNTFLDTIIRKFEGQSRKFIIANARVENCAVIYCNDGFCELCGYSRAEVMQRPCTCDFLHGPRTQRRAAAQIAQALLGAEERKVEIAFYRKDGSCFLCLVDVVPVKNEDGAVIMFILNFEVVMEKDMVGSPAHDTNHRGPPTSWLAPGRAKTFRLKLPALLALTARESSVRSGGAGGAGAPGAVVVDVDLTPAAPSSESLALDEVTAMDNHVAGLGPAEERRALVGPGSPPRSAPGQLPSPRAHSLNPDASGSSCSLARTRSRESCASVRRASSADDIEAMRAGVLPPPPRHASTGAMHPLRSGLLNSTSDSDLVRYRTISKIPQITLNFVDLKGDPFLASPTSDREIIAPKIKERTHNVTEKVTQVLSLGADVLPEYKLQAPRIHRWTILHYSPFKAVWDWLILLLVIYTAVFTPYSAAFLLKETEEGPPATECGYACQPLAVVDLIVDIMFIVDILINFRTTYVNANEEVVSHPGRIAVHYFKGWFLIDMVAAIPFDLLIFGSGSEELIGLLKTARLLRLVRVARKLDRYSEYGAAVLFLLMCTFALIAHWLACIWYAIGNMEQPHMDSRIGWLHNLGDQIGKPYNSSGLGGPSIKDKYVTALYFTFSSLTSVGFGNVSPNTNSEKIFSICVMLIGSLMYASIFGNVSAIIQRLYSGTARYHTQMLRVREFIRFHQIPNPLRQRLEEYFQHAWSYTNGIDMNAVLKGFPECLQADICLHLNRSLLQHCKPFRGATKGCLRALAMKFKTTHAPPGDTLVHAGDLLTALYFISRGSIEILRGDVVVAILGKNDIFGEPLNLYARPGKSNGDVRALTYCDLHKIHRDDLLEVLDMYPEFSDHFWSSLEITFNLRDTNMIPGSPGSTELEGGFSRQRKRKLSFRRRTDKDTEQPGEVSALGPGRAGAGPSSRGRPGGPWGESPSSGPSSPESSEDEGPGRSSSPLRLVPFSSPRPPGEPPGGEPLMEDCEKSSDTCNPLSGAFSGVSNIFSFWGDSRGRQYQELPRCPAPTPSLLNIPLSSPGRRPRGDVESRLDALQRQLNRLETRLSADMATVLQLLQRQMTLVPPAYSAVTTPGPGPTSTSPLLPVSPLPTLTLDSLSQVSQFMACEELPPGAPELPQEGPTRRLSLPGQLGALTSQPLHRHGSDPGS
Method: The activity of the compounds against the hERG ion channel was tested using a binding assay in stably transfected Human Embryonic Kidney cells (hERG-HEK293). hERG-HEK293 cells were cultured in MEM medium (Invitrogen)+10% FBS, glutamine and non-essential amino acids at 37° C. To prepare membranes, cells were homogenised on ice, centrifuged at 650×g for 10 minutes at +4° C., and the resulting supernatant centrifuged at 48000×g for 10 minutes at +4° C. The pellet was resuspended in ice-cold 50 mM Tris-HCl buffer, 5 mM KCl (pH 8.5) and stored frozen in aliquots until use.
For binding assays, membranes were thawed, re-suspended in assay buffer (10 mM HEPES pH 7.4, 0.1% BSA, 5 mM potassium chloride, 0.8 mM magnesium chloride, 130 mM sodium chloride, 1 mM sodium-EGTA, 10 mM glucose) and incubated with ^3H astemizole (1.5 nM), and with or without test compound at 25° C. for 60 minutes. Binding was determined following filtration of the membranes and washing in Tris-HCl buffer by scintillation counting of ^3H astemizole.
The degree of binding of compounds to the hERG ion channel (%) was obtained by measuring the binding of ^3H astemizole and its displacement by test compound. A value of 0% indicates no binding and a value of 100% indicates complete displacement of the radiolabelled ligand.

[4] = pooled human hepatocytes, 1 μM, 60 minute incubation
[5] = Homo sapiens, THP-1, 9-point concentration range from 10 μM to 10 nM

SMILES	solubility at 16 h [1]	hepatocyte CLint at 1 μM [3]	half-life at 1 μM [3]	metabolic stability (in words) (human hepatocytes)	pIC50 [2, 5]	inhibition at 60 min, 30 µM (hERG)	further results
CC1(O)CCC(NS(=O)(=O)c2ccc(-c3ccc(F)cc3F)cc2)CC1 (stereo not shown) [ABD900, reference compound]	–	–	–	–	–	–	Solubility ([1]; pH 6.8): 120 µg/mL (≈ 315 µM); Human Clint (human hepatocytes; [4]): 6.3 uL/min/million cells; Human t1/2 (human hepatocytes; [4]): 3.67 h; pIC50 ([2]; 9-point concentration range from 10 μM to 10 nM): 5.96
CC(=O)N1CCC(CS(=O)(=O)c2ccc(-c3ccc(F)c(F)c3)cc2)CC1 [NASMP-02, 1-(4-(((3′,4′-Difluoro-[1,1′-biphenyl]-4-yl)sulfonyl)methyl)piperidin-1-yl)ethan-1-one]	32 µg/mL (≈ 81.3 µM)	< 3 µL/min/1e6 cells	> 7.67 h	exceptionally good stability	5.10	30%	–
CC(=O)N1CCC(CS(=O)(=O)c2ccc(-c3cc(F)ccc3F)cc2)CC1 [NASMP-03, 1-(4-(((2′,5′-Difluoro-[1,1′-biphenyl]-4-yl)sulfonyl)methyl)piperidin-1-yl)ethan-1-one]	42 µg/mL (≈ 107 µM)	< 3 µL/min/1e6 cells	> 7.67 h	exceptionally good stability	5.52	20%	–
CC(=O)N1CCC(CS(=O)(=O)c2ccc(-c3ccc(C#N)cc3F)cc2)CC1 [NASMP-04, 4′-(((1-Acetylpiperidin-4-yl)methyl)sulfonyl)-2-fluoro-[1,1′-biphenyl]-4-carbonitrile]	–	–	–	–	5.77	–	–
CC(=O)N1CCC(CS(=O)(=O)c2ccc(-c3cccc(F)c3F)cc2)CC1 [NASMP-08, 1-(4-(((2′,3′-Difluoro-[1,1′-biphenyl]-4-yl)sulfonyl)methyl)piperidin-1-yl)ethan-1-one]	–	–	–	–	5.42	–	–
CC(=O)N1CCC(CS(=O)(=O)c2ccc(-c3ccc(C#N)cc3)c(F)c2)CC1 [NASMP-10, 4′-(((1-Acetylpiperidin-4-yl)methyl)sulfonyl)-2′-fluoro-[1,1′-biphenyl]-4-carbonitrile]	–	–	–	–	5.46	–	–

Second part, led by results:

solubility at 16 h [1]	hepatocyte CLint at 1 μM [3]	half-life at 1 μM [3]	metabolic stability (in words) (human hepatocytes)	pIC50 [2, 5]	SMILES	inhibition at 60 min, 30 µM (hERG)	further results
–	3.3 µL/min/1e6 cells	> 1 h	–	5.80	CC(=O)N1CCC(CS(=O)(=O)c2ccc(-c3ncc(F)cc3F)c(F)c2)CC1 [NASMP-11, 1-(4-(((4-(3,5-Difluoropyridin-2-yl)-3-fluorophenyl)sulfonyl)methyl)piperidin-1-yl)ethan-1-one]	–	–
–	–	–	–	5.77	CC(=O)N1CCC(CS(=O)(=O)c2ccc(-c3ccc(F)cc3F)c(C#N)c2)CC1 [NASMP-13, 4-(((1-Acetylpiperidin-4-yl)methyl)sulfonyl)-2′,4′-difluoro-[1,1′-biphenyl]-2-carbonitrile]	–	–
–	28.2 µL/min/1e6 cells	0.97 h	–	5.85	CN(C)C(=O)N1CCC(CS(=O)(=O)c2ccc(-c3ccc(F)cc3F)cc2)CC1 [NASMP-14, 4-(((2′,4′-Difluoro-[1,1′-biphenyl]-4-yl)sulfonyl)methyl)-N,N-dimethylpiperidine-1-carboxamide]	–	–
–	–	> 1 h	exceptionally good stability	5.82	CC(=O)N1CCC(C)(CS(=O)(=O)c2ccc(-c3ccc(Cl)cc3C#N)cc2)CC1 [NASMP-16, 4′-(((1-Acetyl-4-methylpiperidin-4-yl)methyl)sulfonyl)-4-chloro-[1,1′-biphenyl]-2-carbonitrile]	–	–
27 µg/mL (≈ 62.9 µM)	11.7 µL/min/1e6 cells	1.92 h	–	5.55	CC(=O)N1CCC(C(F)(F)S(=O)(=O)c2ccc(-c3ccc(F)cc3F)cc2)CC1 [NASMP-19, 1-(4-(((2′,4′-Difluoro-[1,1′-biphenyl]-4-yl)sulfonyl)difluoromethyl)piperidin-1-yl)ethan-1-one]	21%	–
37 µg/mL (≈ 94 µM)	< 3 µL/min/1e6 cells	> 7.67 h	exceptionally good stability	–	CC(=O)N1CCC(CS(=O)(=O)c2ccc(-c3cc(F)cc(F)c3)cc2)CC1 [NASMP-20, 1-(4-(((3′,5′-Difluoro-[1,1′-biphenyl]-4-yl)sulfonyl)methyl)piperidin-1-yl)ethan-1-one]	39%	pIC50 ([2]; Homo sapiens, THP-1, 8-point concentration range from 100 μM to 100 nM): 4.74

Reference: patent US12162836B2, “N-acyl-{4-[(4-aryl-phenyl)sulfonylmethyl]piperidine} compounds and their therapeutic use” (Modern Biosciences Limited, priority 2019, dated 2024)
